Patent US11787781B2, “Inhibiting ataxia telangiectasia and RAD3-related protein (ATR)” (Celator Pharmaceuticals, Inc., priority 2016, dated 2023)

Legend:
pKa = format: physicochemical; settings: method not stated
[1] = Loading of ATR inhibitors into TEA-SOS liposomes and liposome characterization; format: physicochemical; settings: for Loading efficiency (%) / Drug/lipid ratio after loading: TEA-SOS liposomes; for Loading efficiency (%): Compound 1 at ratio before loading 379; for Drug/lipid ratio after loading: input ratio before loading (Compound 1: 379); for Liposome size, (mean ± SD) nm: liposomes loaded with the ATR inhibitor
Protocol: Sodium sucrose octasulfate (equivalent weight 144.8) is a sodium salt of sucrose derivate in which all hydroxyl groups have formed sulfuric acid esters. Sixty gram of sucrose octasulfate (SOS) sodium salt were dissolved in 150 ml of di water, heated with shaking (swirling) of a 50° C. water bath. The solution was passed through a column packed with sulfonated polystyrene divinylbenzene copolymer cation exchange resin beads (Dowex 50Wx8-100-200 mesh, Dow Chemical Co.). […] The eluent was monitored using a conductivity detector. The SOS fraction was collected corresponding to conductivity peak and immediately titrated with neat triethylamine (TEA) solution to pH 6-6.5. The solution was analyzed for residual sodium by potentiometry using a sodium-sensitive electrode and for SOS concentration using a refractometer. The solution having residual sodium less than 0.25% was diluted with di water to final SOS concentration 1.1 M and then sterile-filtered using Millipore 0.22 μm Steri-Top filter.
Cholesterol (Chol) was purchased from Avanti Polar Lipids, Alabaster, Ala., USA, hydrogenated soy phosphocholine (HSPC) and methoxy-poly(ethylene glycol)-1,2-distearoyl-sn-glyceryl (PEG2000-DSG) were obtained from Lipoid GmbH, Ludwigshafen, Germany.
Chol, HSPC and PEG2000-DSG were co-dissolved in 100% ethanol (200-proof, Sigma cat #: 459828) at a molar ratio of 3:2:0.15 at 65° C. The solution of TEA-SOS (10 times the volume of added ethanol) was mixed with the lipid solution at 60-65° C. and stirred at this temperature until a homogeneous milky suspension of multilamellar vesicles was formed. This suspension was extruded 3 times through 5 stacked polycarbonate track-etched filters (Corning Nuclepore) with the pore size of 100 nm using argon pressure extruder (Lipex Biomembranes) at 60-65° C., and resulting unilamellar liposomes were quickly chilled in ice and then stored at 4-6° C. before use. Concentration of phospholipids was measured by phosphate assay and particle diameter was recorded on a Malvern Nanosizer.
Prior to drug loading, the TEA-SOS gradient was created by removing excess of un-trapped TEA-SOS using gel-chromatography (Sepharose CL-4B, Pharmacia). Osmolarity of liposomes was balanced using 50% dextrose solution. Final dextrose concentration was 15%.
ATR inhibitors were dissolved in 15% dextrose solutions in di water by titration with 1 M HCl and heating at 45° C. and then filtered with 0.2 micron NALGENE 13 mm Syringe Filters. Drug concentration in the solution was detected by HPLC. […]
The liposome-drug mixture was incubated with occasional agitation for 30 minutes at 65° C. The incubation mixture was quickly cooled down and incubated for 10 minutes at 0° C., then allowed to attain ambient temperature. Un-encapsulated drug was removed by gel chromatography on Sephadex G-25 (Amersham Pharmacia) eluted with HBS-6.5 buffer (5 mM 2-(4-(2-hydroxyethyl)-piperazino)-ethylsulfonic acid (HEPES), 144 mM NaCl, pH 6.5). Liposome fractions eluted in the void volume were combined, sterilized by 0.2 micron filtration, and stored at 4-6° C. before use. The liposomes were characterized by lipid concentration, drug concentration, and particle size (Table 2).

ATR/ATRIP(h) = ATR/ATRIP(h) (Homo sapiens (Human), UniProt Q13535); test: Eurofins ATR/ATRIP HTRF assay, p53 Ser15 phosphorylation; format: biochemical; parameters: key to Top / Bottom: % of DMSO positive control activity; settings: ATP 10 μM; for Hill: four parameter logistic fit; for Bottom / Top: four parameter logistic fit of % control activity
ATR/ATRIP(h), sequence (Q13535 whole entry): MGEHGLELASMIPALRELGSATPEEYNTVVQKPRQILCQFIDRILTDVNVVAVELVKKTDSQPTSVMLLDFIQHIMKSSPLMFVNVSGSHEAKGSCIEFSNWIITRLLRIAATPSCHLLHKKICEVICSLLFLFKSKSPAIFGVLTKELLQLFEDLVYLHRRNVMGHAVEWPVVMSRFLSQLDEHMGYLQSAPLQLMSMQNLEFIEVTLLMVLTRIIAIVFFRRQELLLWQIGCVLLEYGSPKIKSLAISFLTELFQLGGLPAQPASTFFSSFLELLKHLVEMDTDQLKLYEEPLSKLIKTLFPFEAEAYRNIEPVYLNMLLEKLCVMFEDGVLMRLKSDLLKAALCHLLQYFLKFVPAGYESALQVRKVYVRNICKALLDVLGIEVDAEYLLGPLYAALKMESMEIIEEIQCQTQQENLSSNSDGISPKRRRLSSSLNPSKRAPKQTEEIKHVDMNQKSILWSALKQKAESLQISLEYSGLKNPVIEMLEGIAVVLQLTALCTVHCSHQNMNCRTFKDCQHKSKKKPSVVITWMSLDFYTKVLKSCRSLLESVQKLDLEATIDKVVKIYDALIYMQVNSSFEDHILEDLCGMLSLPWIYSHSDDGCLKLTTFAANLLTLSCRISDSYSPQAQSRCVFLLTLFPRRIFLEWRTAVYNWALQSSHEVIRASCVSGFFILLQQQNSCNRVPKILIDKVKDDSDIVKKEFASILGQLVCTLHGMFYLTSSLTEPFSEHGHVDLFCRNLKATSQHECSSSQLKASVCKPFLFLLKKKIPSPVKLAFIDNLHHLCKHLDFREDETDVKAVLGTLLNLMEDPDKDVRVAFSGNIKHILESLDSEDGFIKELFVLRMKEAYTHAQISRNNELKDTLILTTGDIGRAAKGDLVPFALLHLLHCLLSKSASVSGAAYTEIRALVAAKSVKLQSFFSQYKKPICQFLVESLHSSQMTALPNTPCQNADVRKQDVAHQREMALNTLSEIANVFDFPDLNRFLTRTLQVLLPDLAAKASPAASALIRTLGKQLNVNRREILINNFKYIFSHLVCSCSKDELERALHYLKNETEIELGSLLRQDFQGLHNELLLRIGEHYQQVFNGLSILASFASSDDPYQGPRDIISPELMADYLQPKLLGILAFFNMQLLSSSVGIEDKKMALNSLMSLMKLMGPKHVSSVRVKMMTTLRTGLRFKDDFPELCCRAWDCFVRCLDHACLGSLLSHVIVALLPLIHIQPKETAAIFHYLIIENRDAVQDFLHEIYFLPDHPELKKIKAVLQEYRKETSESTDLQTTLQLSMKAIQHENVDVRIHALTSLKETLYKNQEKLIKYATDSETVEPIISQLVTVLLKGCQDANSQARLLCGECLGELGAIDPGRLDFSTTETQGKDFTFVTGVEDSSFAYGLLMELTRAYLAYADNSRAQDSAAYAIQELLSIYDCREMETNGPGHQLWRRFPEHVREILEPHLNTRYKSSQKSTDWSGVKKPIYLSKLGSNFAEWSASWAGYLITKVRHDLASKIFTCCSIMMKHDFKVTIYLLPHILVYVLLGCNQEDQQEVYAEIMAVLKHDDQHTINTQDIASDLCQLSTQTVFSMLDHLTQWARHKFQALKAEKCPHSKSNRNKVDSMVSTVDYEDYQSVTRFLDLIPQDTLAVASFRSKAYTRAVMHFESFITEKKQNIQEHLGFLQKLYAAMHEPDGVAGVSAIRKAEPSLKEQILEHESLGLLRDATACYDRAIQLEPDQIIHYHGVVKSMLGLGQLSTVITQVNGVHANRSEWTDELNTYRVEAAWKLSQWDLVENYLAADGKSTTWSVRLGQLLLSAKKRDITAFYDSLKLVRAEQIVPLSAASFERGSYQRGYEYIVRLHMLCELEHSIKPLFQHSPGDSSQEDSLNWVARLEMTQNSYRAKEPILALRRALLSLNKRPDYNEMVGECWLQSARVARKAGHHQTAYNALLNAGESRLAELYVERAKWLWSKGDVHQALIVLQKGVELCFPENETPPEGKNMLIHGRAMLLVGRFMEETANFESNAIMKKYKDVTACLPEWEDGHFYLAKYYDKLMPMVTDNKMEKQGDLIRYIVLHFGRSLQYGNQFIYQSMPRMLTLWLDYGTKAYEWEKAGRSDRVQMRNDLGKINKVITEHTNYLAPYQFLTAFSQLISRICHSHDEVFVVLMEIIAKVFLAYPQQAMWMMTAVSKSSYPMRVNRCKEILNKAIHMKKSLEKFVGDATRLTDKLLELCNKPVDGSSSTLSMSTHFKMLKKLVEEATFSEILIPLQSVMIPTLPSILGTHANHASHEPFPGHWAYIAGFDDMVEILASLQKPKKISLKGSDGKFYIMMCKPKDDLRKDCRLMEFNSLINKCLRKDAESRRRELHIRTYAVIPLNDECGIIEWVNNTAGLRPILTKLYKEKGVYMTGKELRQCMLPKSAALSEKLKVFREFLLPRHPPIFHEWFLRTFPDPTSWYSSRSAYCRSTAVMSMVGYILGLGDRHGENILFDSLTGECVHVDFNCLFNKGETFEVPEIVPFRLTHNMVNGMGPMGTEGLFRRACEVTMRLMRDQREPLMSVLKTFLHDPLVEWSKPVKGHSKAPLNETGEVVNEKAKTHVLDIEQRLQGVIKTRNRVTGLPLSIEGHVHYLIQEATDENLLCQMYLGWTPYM
ATR/ATRIP(h), sequence (Q8WXE1 whole entry partner): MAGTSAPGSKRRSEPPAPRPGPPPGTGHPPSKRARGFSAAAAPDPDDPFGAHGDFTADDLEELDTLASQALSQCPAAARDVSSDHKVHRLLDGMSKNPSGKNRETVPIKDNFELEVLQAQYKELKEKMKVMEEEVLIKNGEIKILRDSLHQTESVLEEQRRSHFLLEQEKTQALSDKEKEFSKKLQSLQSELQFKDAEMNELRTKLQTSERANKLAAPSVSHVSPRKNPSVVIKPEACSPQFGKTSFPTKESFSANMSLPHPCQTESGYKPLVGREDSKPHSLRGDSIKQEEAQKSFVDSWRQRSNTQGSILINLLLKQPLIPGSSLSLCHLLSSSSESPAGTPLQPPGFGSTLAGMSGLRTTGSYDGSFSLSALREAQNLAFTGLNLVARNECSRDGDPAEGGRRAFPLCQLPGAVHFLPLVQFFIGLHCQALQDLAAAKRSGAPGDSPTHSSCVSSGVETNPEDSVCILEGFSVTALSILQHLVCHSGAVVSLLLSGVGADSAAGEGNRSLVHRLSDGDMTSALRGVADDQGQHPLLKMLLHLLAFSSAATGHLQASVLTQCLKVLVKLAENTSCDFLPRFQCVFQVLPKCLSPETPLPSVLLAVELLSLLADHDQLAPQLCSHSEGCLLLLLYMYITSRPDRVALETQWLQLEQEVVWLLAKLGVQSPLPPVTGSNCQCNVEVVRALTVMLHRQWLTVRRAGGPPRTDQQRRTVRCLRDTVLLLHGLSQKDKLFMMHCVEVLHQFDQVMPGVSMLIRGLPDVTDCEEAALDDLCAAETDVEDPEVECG
Protocol: An EC50 determination was conducted for the supplied set of compounds against the kinase ATR/ATRIP(h), using a linear enzyme concentration in the Eurofins ATR/ATRIP HTRF assay using GST tagged full length p53 as the substrate.
ATR/ATRIP phosphorylation of p53 on Ser15 was measured via formation of an energy transfer complex consisting of a Europium-labelled anti-phospho Ser15 p53 antibody and an anti-GST-d2 antibody. All data points were performed in duplicate with DMSO controls and EDTA blanks.
ATR/ATRIP(h) was pre-diluted in 25 mM HEPES pH 8.0, 0.01% Brij-35, 1% Glycerol, 5 mM DTT, 1 mg/mL BSA and assayed in 25 mM HEPES pH 8.0, 0.01% Brij-35, 1% Glycerol, 10 mM MnCl2 using 30 nM GST, cMyc p53-(hu,FL) as the substrate. The reaction was initiated with the addition of ATP to a final concentration of 10 μM.
The individual replicates were expressed in terms of the % of the DMSO positive control activity. The mean activity (% control) of each inhibitor concentration was plotted against the inhibitor concentration, and EC50 values were determined using […] PRISM.
The data expressed as % control activity were plotted against inhibitor concentration, and fitted to a four parameter logistic using […] PRISM. Graphs for each compound are shown alongside the data in the accompanying Excel report.

ATM(h) = ATM(h) (Homo sapiens (Human), UniProt Q13315); test: ATM activity, […] KINASEPROFILER; format: biochemical; settings: estimated IC50
Text: Estimated IC50 values are as follows (obtained using […] KINASEPROFILER): […]

[2] = system: total and phospho-ATR (S428), phospho-CHK1 (S317 and S345) in DMS-114 cells; test: Western blot of total and phospho-ATR, phospho-CHK1 in DMS-114 cells; format: cell-based
Protocol: Whole cell protein lysates were generated after 1, 3, 6 and 24 hours using a 2% SDS containing cell lysis buffer and stored at −80° C. until all samples were collected and run together at the same time for the WesternBlot analysis. The following proteins and phosphoproteins of interest were detected by antibodies purchased from Cell Signaling Technology (see methods and materials part below): total and phospho-ATR (S428), phospho-CHK1 (S317 and S345), γH2AX, beta-actin.
All target and phospho-specific antibodies were purchased from Cell Signaling and/or Epitomics and were used at 1:1000 dilutions. A list of all antibodies is available in Table 6. Standard antibody based Western blot and immunohistochemistry protocols were used. Briefly, 2% SDS based cell lysis buffer was used to collect whole cell lysate for Western Blotting. Secondary antibodies and staining protocols were purchased and followed regarding LiCor Biosciences and/or BD Bioscience.
Cells were grown and treated in a 6 cm dish scale. To harvest cells, medium was removed and quickly replaced by ice cold PBS. PBS was then replaced with 250 μL of 2% SDS lysis buffer. After five minutes of incubation, the lysed cells were scraped off and loaded onto a cell lysate homogenizer microcentrifuge spin-column (QIAshredder, Qiagen, Cat.-Nr. 79656). The filtrate was then loaded onto a 0.2 μm centrifugal filter column (Nanosep MF 0.2_m, Pall, Cat.-Nr. ODM02C34). The lysates were then stored at −80° C.

U2OS cells = test: Cell death and growth assay, U2OS cells; format: cell-based
Protocol: U20S and all other cells were grown in (RPMI) supplemented with 10% fetal bovine serum (FBS) and antibiotics. Imaging and time-lapse compatible NucLight red cell lines were generated as recommend by Essen Bioscience Inc. using lentiviral particles, infection and puromycin selection protocols.
The results were compared back to a prediction of cell growth and death with the combination of the two compounds (FIG. 18A).
In all cases, relative cell proliferation is reduced with the combinations compared to the drugs alone (FIG. 21B-C).

NCI-H520 cells = test: Cell number over time, NCI-H520 cells; format: cell-based; settings: 1 μM in combination with SN38 0.2 μM
NCI-H596 cells = test: Cell number over time, NCI-H596 cells; format: cell-based; settings: 1 μM in combination with SN38 0.2 μM
MS-751 cells = test: In vitro growth assay, MS-751 cells; format: cell-based; settings: in combination with SN38
SUM149 cells = test: Cell cycle stage profile, SUM149 cells; format: cell-based; settings: 24 hours after addition of SN38 and ATR inhibitor

Row | SMILES | pKa (pKa) | Loading efficiency (%) [1] | Drug/lipid ratio after loading [1] | Liposome size, (mean ± SD) nm [1] | EC50 (ATR/ATRIP(h)) | Hill (ATR/ATRIP(h)) | Bottom (ATR/ATRIP(h)) | Top (ATR/ATRIP(h)) | IC50 (ATM(h)) | phospho-CHK1 (S317 and S345) signaling ([2]; Gemcitabine 16 nM alone, over 24 hrs) | loading efficacy ([1]; Compound 1: at drug to lipid ratio higher than 400 g/mol) | Drug/lipid ratio after loading (loadability) ([1]; drug/lipid ratio before loading 600-800) | phosphorylation signal of CHK1 (S317 and S345) induced by Gemcitabine ([2]; ATR inhibitor 1 μM added to Gemcitabine 16 nM) | total and phospho-ATR signal ([2]; ATR inhibitor 1 μM, alone or with Gemcitabine 16 nM, up to 24 hrs) | cell numbers over time vs either agent in isolation (U2OS cells; 1 μM in combination with SN38 0.2 μM) | cell death vs either compound alone (U2OS cells; Compound A (1 μM) combined with Gemcitabine (0.04 μM)) | cell numbers over time vs either agent in isolation (NCI-H520 cells) | cell numbers over time vs either agent in isolation (NCI-H596 cells) | cell number over time vs either compound alone (MS-751 cells) | cell cycle stage profile vs controls (SUM149 cells)
1 | CCN(CC)CCS(=O)(=O)c1ccc(-c2cnc(N)c(C(=O)Nc3ccccc3)n2)cc1 [Compound 2, 3-amino-6-(4-((2-(diethylamino)ethyl)sulfonyl)phenyl)-N phenylpyrazine-2-carboxamide] | 7.46 | 100 ± 5% | 639 ± 22 | 130 ± 34 nm | 140 nM | −0.911 | 1 | 94 | 4820 nM |  |  |  |  |  |  |  |  |  |  | 
2 | Nc1ccn([C@@H]2O[C@H](CO)[C@@H](O)C2(F)F)c(=O)n1 [Gemcitabine] |  |  |  |  |  |  |  |  |  | significantly increased |  |  |  |  |  |  |  |  |  | 
3 | CC(CN(C)C)S(=O)(=O)c1ccc(-c2cnc(N)c(C(=O)Nc3ccccc3)n2)cc1 (stereo not shown) [Compound 1, 3-amino-6-(4-((1-(dimethylamino)propan-2-yl)sulfonyl)phenyl)-N-phenylpyrazine-2-carboxamide] | 7.04 | 98% | 369 | 122 ± 24 nm | 49.6 nM | −0.772 | −1 | 95 | 3860 nM |  | formed aggregates | Not loadable. Formed aggregates |  |  |  |  |  |  |  | 
4 | CCN(CC)C1CCN(CCS(=O)(=O)c2ccc(-c3cnc(N)c(C(=O)Nc4ccccc4)n3)cc2)CC1 [Compound 6, 3-amino-6-(4-((2-(4-(diethylamino)piperidin-1 yl)ethyl)sulfonyl)phenyl)-N-phenylpyrazine-2-carboxamide] | 9.81 | 74 ± 0.3% | 550 ± 64 | 119 ± 28 nm | 471 nM | −0.768 | −2 | 101 | > 10000 nM |  |  |  |  |  |  |  |  |  |  | 
5 | CNCc1ccc(-c2cc(-c3nc(-c4ccc(S(=O)(=O)C(C)C)cc4)cnc3N)on2)cc1 [Compound A] |  |  |  | 121 ± 26 nm |  |  |  |  | 42 nM |  |  |  | abrogates the phosphorylation signal of CHK1 | strongly reduced | more effective at maintaining or reducing cell numbers over time | better at promoting cell death | more effective at maintaining or reducing cell numbers over time | more effective at maintaining or reducing cell numbers over time | reduction in cell number over time | larger percentage of cells are arrested in G2 phase
6 | CN1CCN(CCS(=O)(=O)c2ccc(-c3cnc(N)c(C(=O)Nc4ccccc4)n3)cc2)CC1 [Compound 3, 3-amino-6-(4-((2-(4-methylpiperazin-1-yl)ethyl)sulfonyl)phenyl)-N-phenylpyrazine-2-carboxamide] | 7.73 | 97 ± 5% | 628 ± 6 | 120 ± 27 nm | 196 nM | −0.776 | −3 | 98 | > 10000 nM |  |  |  |  |  |  |  |  |  |  | 
7 | CN(C)CCNS(=O)(=O)c1ccc(-c2cnc(N)c(C(=O)Nc3ccccc3)n2)cc1 [Compound 4, 3-amino-6-(4-(((2-(dimethylamino)ethyl)-λ^2-azanyl)sulfonyl)phenyl)-N-phenylpyrazine-2-carboxamide] | 8.36 |  |  |  | 353 nM |  |  |  | 6870 nM |  |  |  |  |  |  |  |  |  |  | 
